The target in test [1] is T1, recombinant human B1 receptors (Homo sapiens, UniProt P46663).
T1 construct: host or cells: CHO (CHO-B1)
T1 sequence (P46663 1-353): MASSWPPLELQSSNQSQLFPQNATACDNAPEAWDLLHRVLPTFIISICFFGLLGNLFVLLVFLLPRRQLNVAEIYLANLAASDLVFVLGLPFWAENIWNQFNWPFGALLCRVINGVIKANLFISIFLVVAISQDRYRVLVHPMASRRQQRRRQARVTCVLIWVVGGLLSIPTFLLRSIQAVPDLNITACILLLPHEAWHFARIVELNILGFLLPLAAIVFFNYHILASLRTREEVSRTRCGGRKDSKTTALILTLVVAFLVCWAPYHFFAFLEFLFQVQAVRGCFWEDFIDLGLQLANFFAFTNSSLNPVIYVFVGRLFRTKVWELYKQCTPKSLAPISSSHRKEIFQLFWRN
The test can be described thus: Functional assay: antagonist potency by cytosolic calcium measurement in CHO-B1 cells. It counts as cell-based. The settings on record: CHO-B1 cells, inhibition of LysDABK (EC80)-evoked [Ca2+]i elevation; read-out: B1 func. The method, then:
Assessment of Antagonist Potency at B1 and B2 Receptors In Vitro by Measurement of Cytosolic Calcium Ion Concentration with a Plate Reader Fluorimeter in Cells Expressing Recombinant Human B1 or B2 Receptors
Chinese hamster ovary (CHO) cells stably expressing recombinant human B1 (CHO-B1, Euroscreen) or B2 (CHO-B2, Perkin-Elmer) receptors were cultured in Dulbecco's Modified Eagle's Medium (DMEM) containing 10% Fetal Calf Serum (FCS), 100 U/ml penicillin, 0.1 mg/ml streptomycin, 0.25 μg/ml amphotericin B, 1% Minimum Essential Medium Eagle (MEM), non essential amino acid solution, 600 μg/ml G418, 1% pyruvate (for the B2 cell line). Cells were kept at 37° C. in a humidified incubator in an atmosphere of 5% CO2/95% air and were passaged 1:4 three times a week. Cells were plated at 1.5−2.5×10^4 cell/well on standard 96-well microplates, measurements of cytosolic calcium ion concentration ([Ca^2+]i) were carried out 1-2 days after cell plating.
Measurements of [Ca^2+]i were carried out on CHO-B1 and CHO-B2 cells stably expressing human B1 and B2 receptors, respectively. Cells were grown in standard 96-well microplates and before the measurement were loaded with a fluorescent Ca^2+-sensitive dye, fluo-4/AM (2 μM): after removing the culture medium the dye was added to the cells (dissolved in assay buffer: 145 mM NaCl, 5 mM KCl, 2 mM MgCl2, 2 mM CaCl2, 10 mM HEPES, 20 mM D-glucose, 2 mM probenecid, 100 μl/well) and cells were incubated at 37° C. in a humidified incubator in an atmosphere of 5% CO2/95% air for 40-120 min. To stop dye loading cells were washed twice with assay buffer. After washing, various concentrations of the test compounds (diluted in extracellular medium from a DMSO stock solution, final DMSO concentration was <0.1%) or buffer were added to each well depending on the experimental setup. After incubation at 37° C. for 20-25 min. baseline and agonist-evoked changes of [Ca^2+]i were measured column by column with a plate reader fluorimeter (Fluoroskan Ascent, Labsystems). Excitation and detection of emission was carried out from the bottom of the plate. Filters used for Fluo-4: excitation filter—485 nm, emission filter—538 nm. The whole measurement process was performed at 37° C. and was controlled by custom software. Inhibitory potency of the test compounds was assessed by measuring the reduction in the agonist-evoked [Ca^2+]i-elevation in the presence of different concentrations of the compounds. The agonists were LysDABK for CHO-B1, and bradykinin for CHO-B2 cells. Agonists were applied at an EC80 concentration, the EC80-values were derived from daily determined dose-response curves. Fluorescence data were expressed as ΔF/F (fluorescence change normalized to baseline). All treatments on a single plate were measured in multiple wells. Data from all wells with the same treatment were averaged and the average values were used for analysis. Inhibitory potency of a compound at a single concentration point was expressed as percent inhibition of the control agonist response. Sigmoidal concentration-inhibition curves were fitted to the data (derived from at least three independent experiments) and IC50-values were determined as the concentration that produces half of the maximal inhibition caused by the compound.

In test [2] the target is T2, human recombinant bradykinin B1 receptor (Homo sapiens, UniProt P46663).
T2 construct: purchased Euroscreen ES-091; host or cells: CHO cells
T2 sequence (P46663 1-353): T1 sequence (P46663 1-353)
Nature of the test: Human recombinant bradykinin B1 receptor binding. The settings on record: CHO cell membranes, [3H]-[Des-Arg10] Kallidin radioligand; read-out: B1 binding. The protocol:
1. Human Recombinant Bradykinin B1 Receptor Binding
Binding assays were carried out on human recombinant bradykinin) receptors (expressed in CHO cells) according to the Euroscreen Technical Data Sheet (Cat. No.: ES-091). 20 μg protein/tube was incubated with [3,4-prolyl-3,4-^3H(N)]-[Des-Arg^10] Kallidin as radioligand. Non specific binding was determined in the presence of 10 μM Lys-des-Arg^9-Bradykinin. The final incubation volume was 250 μl. Samples were incubated for 15 min. at 25° C. then were rapidly vacuum filtered through GF/B filters presoaked for at least 1 h in 0.5% PEI. Radioactivity was determined by liquid scintillation spectroscopy.

IC50 and Ki data for five compounds are collected here from patent US20100298299A1, “NON-PEPTIDE DERIVATIVES AS BRADYKININ B1 ANTAGONISTS” (priority 2007, published 2010).

Bounds are passed on as bounds.

As to `O=C(N[C@@H](Cc1ccc(O)cc1)C(=O)N1CCC(O)CC1)c1ccc(S(=O)(=O)Nc2ccccc2Oc2ccccc2)cc1` [Example 34, (S)—N-[1-(4-Hydroxy-benzyl)-2-(4-hydroxy-piperidin-1-yl)-2-oxo-ethyl]-4-(2-phenoxy-phenylsulfamoyl)-benzamide], the IC50 in test [1] is < 20 nM. Further, the Ki in test [2] was < 20 nM.

As to `O=C(N[C@H](Cc1ccc(O)cc1)C(=O)N1CCC(O)CC1)c1ccc(S(=O)(=O)Nc2ccccc2Oc2ccccc2)cc1` [Example 29, (R)—N-[1-(4-Hydroxy-benzyl)-2-(4-hydroxy-piperidin-1-yl)-2-oxo-ethyl]-4-(2-phenoxy-phenylsulfamoyl)-benzamide], in test [1], the IC50 is < 20 nM. Further, the Ki in test [2] is < 20 nM.

As for `C[C@@H](NC(=O)c1ccc(S(=O)(=O)Nc2ccccc2Oc2ccccc2)cc1)C(=O)N1CCC(CCN2CCCC2)CC1` [Example 1, (R)—N-{1-Methyl-2-oxo-2-[4-(2-pyrrolidin-1-yl-ethyl)-piperidin-1-yl]-ethyl}-4-(2-phenoxy-phenylsulfamoyl)-benzamide], in test [1], the IC50 is < 20 nM. Further, the Ki in test [2] is < 20 nM.

For `CN1CCC(N2CCN(C(=O)[C@H](Cc3ccc(O)cc3)NC(=O)c3ccc(S(=O)(=O)Nc4ccccc4Oc4ccccc4)cc3)CC2)CC1` [Example 37, (S)—N-{1-(4-Hydroxy-benzyl)-2-[4-(1-methyl-piperidin-4-yl)-piperazin-1-yl]-2-oxo-ethyl}-4-(2-phenoxy-phenylsulfamoyl)-benzamide], the IC50 in test [1] is < 20 nM. Also, the Ki in test [2] is < 20 nM.

Regarding `O=C(NCC(=O)N1CCN(CCCN2CCCC2)CC1)c1ccc(S(=O)(=O)Nc2ccccc2Sc2ccccc2)cc1` [Example 5, N-{2-Oxo-2-[4-(3-pyrrolidin-1-yl-propyl)-piperazin-1-yl]-ethyl}-4-(2-phenylsulfanyl-phenylsulfamoyl)-benzamide], the IC50 in test [1] lay in the range of 20 to 100 nM. In addition, the Ki in test [2] is 20 to 100 nM.
